From patent publication US11447475B2, “Isoxazole N-linked carbamoyl cyclohexyl acids as LPA antagonists” (BRISTOL-MYERS SQUIBB COMPANY, priority 2017, dated 2022)

Molecular target: T1, human LPA1 (Homo sapiens, UniProt Q92633)
T1 construct: expressed in transfected cells; host or cells: Chinese hamster ovary (CHO) cells
Experiment: LPA1 functional antagonist assay (calcium flux)
Type: cell-based
Conditions: CHO cells overexpressing human LPA1; inhibition of calcium flux induced by 10 nM LPA; read-out: hLPA1 IC50
Description: The effectiveness of compounds of the present invention as LPA1 inhibitors can be determined in an LPA1 functional antagonist assay as follows:
Chinese hamster ovary cells overexpressing human LPA1 were plated overnight (15,000 cells/well) in poly-D-lysine coated 384-well microplates (Greiner bio-one, Cat #781946) in DMEM/F12 medium (Gibco, Cat #11039). Following overnight culture, cells were loaded with calcium indicator dye (AAT Bioquest Inc, Cat #34601) for 30 minutes at 37° C. The cells were then equilibrated to room temperature for 30 minutes before the assay. Test compounds solubilized in DMSO were transferred to 384 well non-binding surface plates (Corning, Cat #3575) using the Labcyte Echo acoustic dispense and diluted with assay buffer [1×HBSS with calcium/magnesium (Gibco Cat #14025-092), 20 mM HEPES (Gibco Cat #15630-080) and 0.1% fatty acid free BSA (Sigma Cat #A9205)] to a final concentration of 0.5% DMSO. Diluted compounds were added to the cells by FDSS6000 (Hamamatsu) at final concentrations ranging from 0.08 nM to 5 μM. and were then incubated for 20 min at room temperature at which time LPA (Avanti Polar Lipids Cat #857130C) was added at final concentrations of 10 nM to stimulate the cells. […] IC50 values were determined by fitting data to a 4-parameter logistic equation (GraphPad Prism, San Diego Calif.).

T1 sequence (Q92633 whole entry): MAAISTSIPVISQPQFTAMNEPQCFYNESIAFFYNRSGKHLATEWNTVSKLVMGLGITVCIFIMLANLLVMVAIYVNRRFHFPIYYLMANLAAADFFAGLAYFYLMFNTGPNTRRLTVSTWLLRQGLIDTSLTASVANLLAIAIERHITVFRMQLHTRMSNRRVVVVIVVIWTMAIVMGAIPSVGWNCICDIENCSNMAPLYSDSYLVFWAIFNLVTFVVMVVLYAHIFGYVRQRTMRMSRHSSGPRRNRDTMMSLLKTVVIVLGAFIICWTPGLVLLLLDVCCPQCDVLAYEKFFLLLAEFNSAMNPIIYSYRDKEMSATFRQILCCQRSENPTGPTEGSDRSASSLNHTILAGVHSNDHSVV

Row | IC50 [nM] | SMILES
1 | 9 | Cc1noc(-c2ccc(O[C@H]3CCC[C@H](C(=O)O)C3)cn2)c1CNC(=O)OCc1ccc(F)cc1 [Example 1, (1S,3S)-3-((6-(4-(((((4-Fluorobenzyl)oxy)carbonyl)amino)methyl)-3-methylisoxazol-5-yl) Pyridin-3-yl)oxy)cyclohexanecarboxylic Acid]
2 | 5 | Cc1noc(-c2ccc(O[C@H]3CCC[C@H](C(=O)O)C3)cn2)c1CNC(=O)OCc1cccc(F)c1 [Example 3]

Same assay, conditions: read-out: hLPA1 IC50

Row | SMILES | IC50 [nM]
3 | Cc1noc(-c2ccc(O[C@@H]3CCC[C@@H](C(=O)O)C3)cc2)c1CNC(=O)O[C@@H](C)c1ccccc1 (mixture of isomers) [Example 16] | 1610
4 | Cc1noc(-c2ccc(O[C@@H]3CCC[C@@H](C(=O)O)C3)cc2)c1CNC(=O)O[C@H](C)c1ccccc1 (mixture of isomers) [Example 17] | 293
5 | CCC(C)COC(=O)NCc1c(C)noc1-c1ccc(O[C@@H]2CCC[C@@H](C(=O)O)C2)cc1 (mixture of isomers) [Example 25] | 96
6 | Cc1noc(-c2ccc(O[C@@H]3CCC[C@@H](C(=O)O)C3)cc2)c1CNC(=O)OCc1cccc(F)c1 (racemic) [Example 21] | 257
7 | CCCCOC(=O)NCc1c(C)noc1-c1ccc(O[C@@H]2CCC[C@@H](C(=O)O)C2)cc1 (racemic) [Example 23] | 319
8 | Cc1noc(-c2ccc(O[C@@H]3CCC[C@@H](C(=O)O)C3)cc2)c1CNC(=O)OCC(C)(C)C (racemic) [Example 26] | 334
9 | Cc1noc(-c2ccc(O[C@H]3CCC[C@@H](C(=O)O)C3)cc2)c1NC(=O)O[C@H](C)C1CC1 (racemic) [Example 33] | 84
10 | Cc1noc(-c2cnc(O[C@H]3CCC[C@H](C(=O)O)C3)cn2)c1CNC(=O)OCc1ccccc1 (racemic) [Example 52, (±)-Trans-3-((5-(4-((((benzyloxy)carbonyl)amino)methyl)-3-methyl-isoxazol-5-yl)pyrazin-2-yl)oxy)cyclohexane-1-carboxylic Acid] | 111
11 | Cc1noc(-c2ccc(O[C@H]3CCC[C@H](C(=O)O)C3)cc2)c1NC(=O)O[C@H](C)C1CC1 (single isomer, unassigned) [Example 32] | 84

Continued, values first:

Row | IC50 [nM] | SMILES
12 | 97 | Cc1noc(-c2ccc(O[C@H]3CCCC(C(=O)O)C3)cc2)c1CNC(=O)OCC1CC1C (mixture of isomers) [Example 14]
13 | 1140 | Cc1noc(-c2ccc(O[C@@H]3CCC[C@@H](C(=O)O)C3)cc2)c1CNC(=O)OC(C)C1CC1 (mixture of isomers) [Example 27]
14 | 2130 | Cc1noc(-c2ccc(O[C@@H]3CCC[C@@H](C(=O)O)C3)cc2)c1CNC(=O)OCC(C)C (racemic) [Example 22]
15 | 63 | Cc1noc(-c2ccc(O[C@@H]3CCC[C@@H](C(=O)O)C3)cc2)c1CNC(=O)OCCC(C)C (racemic) [Example 24]
16 | 407 | Cc1noc(-c2ccc(O[C@@H]3CCC[C@@H](C(=O)O)C3)cc2)c1CNC(=O)OCC1CCC1 (racemic) [Example 29]
17 | 4 | Cc1noc(-c2ccc(O[C@H]3CCC[C@H](C(=O)O)C3)cn2)c1CNC(=O)OCc1ccccc1 (single isomer, unassigned) [Example 56]
18 | 49 | Cc1noc(-c2ccc(O[C@@H]3CCC[C@@H](C(=O)O)C3)cn2)c1CNC(=O)OCc1ccccc1 (single isomer, unassigned) [Example 57]
19 | 30 | Cc1noc(-c2ccc(O[C@H]3CCC[C@H](C(=O)O)C3)cn2)c1CNC(=O)OCc1cccc(Cl)c1 [Example 4]
20 | 25 | Cc1cccc(COC(=O)NCc2c(C)noc2-c2ccc(O[C@H]3CCC[C@H](C(=O)O)C3)cn2)c1 [Example 5]
21 | 7 | Cc1noc(-c2ccc(O[C@H]3CCC[C@H](C(=O)O)C3)cn2)c1CNC(=O)OCCC(C)(C)C [Example 6]
22 | 16 | Cc1noc(-c2ccc(O[C@H]3CCC[C@H](C(=O)O)C3)cn2)c1CNC(=O)OCC1CCC1 [Example 7]
23 | 5.5 | Cc1noc(-c2ccc(O[C@H]3CCC[C@H](C(=O)O)C3)cn2)c1CNC(=O)OCC1CC(C)(C)C1 [Example 8]
